According to patent publication US9981987B2, “Tricyclic heterocyclic compounds as phosphoinositide 3-kinase inhibitors” (Karus Therapeutics Limited, priority 2014, dated 2018):

Legend:
[1] = Rodent pharmacokinetics, male CD1 mouse, plasma PK; format: in vivo; details: for clearance / AUC / AUC(0-inf) / AUC(0-t) / Cmax / Vd / half-life: male, CD1, mouse
Experimental: Formulation: 10% DMSO, 90% Saline Dosing: 10 mg/kg P.O. and 5 mg/kg I.V. Plasma PK Summary:
Formulation: 10% DMSO, 90% Saline
Dosing: 10 mg/kg P.O. and 5 mg/kg I.V.

[2] = Rodent pharmacokinetics, male Balb/c mouse, plasma PK; format: in vivo; details: for clearance: male, Balb/c, mouse, iv; for clearance / AUC(0-inf) / AUC(0-t) / Cmax / half-life / Vd / Tmax / bioavailability: plasma; for Vd: read-out: Vss
Experimental: Animals in Group 1 were administered intravenously with Example B solution formulation in 20% Propylene Glycol, 50% of PEG 400 and 30% of (20% HPβCD in water) via tail vein at a dose of 3 mg/kg.
Animals in Group 2 were administered with oral solution formulation of Example B in 20% Propylene Glycol, 50% of PEG 400 and 30% of (20% HPβCD in water) at a dose of 10 mg/kg;
Dosing: 10 mg/kg P.O. and 3 mg/kg I.V.
Animals in Group 1 were administered intravenously with Example G solution formulation in 5% NMP, 5% solutol HS-15 in 90% HPβCD solution (20% HPβCD in RO water) at 3 mg/kg dose.
Animals in Group 2 were administered orally with 10 mg/kg solution formulation of Example G in 5% NMP, 5% solutol HS-15 in 90% HPβCD solution (20% HPβCD in RO water)

PI3K isoforms = test: HTRF biochemical assay, fold selectivity between PI3K isoforms; details: isoform selectivity
Description: (§1) Fold form selectivity inhibition data against PI3K isoforms, as determined using a HTRF biochemical assay, is listed below.

PI3K p110γ = PI3K p110γ (Homo sapiens, UniProt P48736); test: HTRF biochemical assay, PI3K p110γ
Sequence of PI3K p110γ (P48736 whole entry): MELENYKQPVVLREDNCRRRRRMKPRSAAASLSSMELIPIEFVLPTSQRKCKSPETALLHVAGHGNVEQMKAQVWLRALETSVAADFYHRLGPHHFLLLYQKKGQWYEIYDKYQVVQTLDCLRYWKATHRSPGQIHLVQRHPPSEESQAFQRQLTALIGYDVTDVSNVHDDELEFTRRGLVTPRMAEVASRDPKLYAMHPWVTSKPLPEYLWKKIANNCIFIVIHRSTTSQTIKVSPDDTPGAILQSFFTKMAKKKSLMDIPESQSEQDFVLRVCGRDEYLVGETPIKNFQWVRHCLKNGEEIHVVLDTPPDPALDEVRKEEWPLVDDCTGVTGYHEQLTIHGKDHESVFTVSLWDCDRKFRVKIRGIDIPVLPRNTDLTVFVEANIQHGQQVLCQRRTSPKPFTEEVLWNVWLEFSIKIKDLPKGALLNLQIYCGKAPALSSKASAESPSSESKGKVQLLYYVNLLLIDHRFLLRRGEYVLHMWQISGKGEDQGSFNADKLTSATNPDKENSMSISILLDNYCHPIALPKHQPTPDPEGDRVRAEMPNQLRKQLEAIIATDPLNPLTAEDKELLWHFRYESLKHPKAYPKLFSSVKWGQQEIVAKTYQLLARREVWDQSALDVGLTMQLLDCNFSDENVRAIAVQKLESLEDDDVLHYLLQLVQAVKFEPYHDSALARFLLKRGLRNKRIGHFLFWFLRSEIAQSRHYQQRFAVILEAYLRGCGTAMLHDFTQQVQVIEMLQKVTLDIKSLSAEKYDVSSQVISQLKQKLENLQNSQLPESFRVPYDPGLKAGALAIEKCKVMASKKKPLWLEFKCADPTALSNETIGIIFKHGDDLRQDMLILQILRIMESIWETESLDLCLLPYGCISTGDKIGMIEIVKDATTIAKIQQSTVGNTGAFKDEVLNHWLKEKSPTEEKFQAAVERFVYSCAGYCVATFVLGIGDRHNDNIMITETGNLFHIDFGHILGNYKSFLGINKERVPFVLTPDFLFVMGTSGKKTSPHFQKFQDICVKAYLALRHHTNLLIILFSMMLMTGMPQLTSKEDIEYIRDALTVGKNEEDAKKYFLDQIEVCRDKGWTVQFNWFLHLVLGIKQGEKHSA
Description: as §1

PI3K p110β = PI3K p110β (Homo sapiens, UniProt P42338); test: HTRF biochemical assay, PI3K p110β
Sequence of PI3K p110β (P42338 whole entry): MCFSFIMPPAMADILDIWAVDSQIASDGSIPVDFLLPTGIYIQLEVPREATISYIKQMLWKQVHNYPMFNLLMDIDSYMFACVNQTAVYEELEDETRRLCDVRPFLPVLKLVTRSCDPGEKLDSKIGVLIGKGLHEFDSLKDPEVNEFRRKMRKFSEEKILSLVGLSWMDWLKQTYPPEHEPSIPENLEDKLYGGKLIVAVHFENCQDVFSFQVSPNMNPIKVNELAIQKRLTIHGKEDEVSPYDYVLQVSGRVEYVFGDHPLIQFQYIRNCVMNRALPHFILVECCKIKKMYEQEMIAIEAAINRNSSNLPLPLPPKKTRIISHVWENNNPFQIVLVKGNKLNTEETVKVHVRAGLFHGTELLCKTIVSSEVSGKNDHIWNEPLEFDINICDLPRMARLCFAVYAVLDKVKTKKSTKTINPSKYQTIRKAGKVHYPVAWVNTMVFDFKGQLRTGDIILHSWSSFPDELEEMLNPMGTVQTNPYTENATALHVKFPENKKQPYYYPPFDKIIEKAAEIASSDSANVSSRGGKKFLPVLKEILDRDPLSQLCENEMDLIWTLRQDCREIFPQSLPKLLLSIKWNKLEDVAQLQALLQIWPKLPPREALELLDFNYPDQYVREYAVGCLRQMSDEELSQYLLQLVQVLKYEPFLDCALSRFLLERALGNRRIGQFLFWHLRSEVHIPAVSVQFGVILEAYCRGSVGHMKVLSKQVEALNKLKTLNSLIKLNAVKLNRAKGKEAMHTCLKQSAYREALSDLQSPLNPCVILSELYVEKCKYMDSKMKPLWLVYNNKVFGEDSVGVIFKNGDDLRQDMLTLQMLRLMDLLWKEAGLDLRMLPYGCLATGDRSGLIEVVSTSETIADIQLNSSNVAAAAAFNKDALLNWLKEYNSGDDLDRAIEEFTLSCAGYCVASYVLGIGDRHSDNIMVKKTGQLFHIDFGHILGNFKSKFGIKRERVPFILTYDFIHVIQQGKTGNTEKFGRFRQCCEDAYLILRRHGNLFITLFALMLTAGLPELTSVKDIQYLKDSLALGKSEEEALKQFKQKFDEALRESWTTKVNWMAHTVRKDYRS
Sequence of PI3K p110β (P27986 whole entry partner): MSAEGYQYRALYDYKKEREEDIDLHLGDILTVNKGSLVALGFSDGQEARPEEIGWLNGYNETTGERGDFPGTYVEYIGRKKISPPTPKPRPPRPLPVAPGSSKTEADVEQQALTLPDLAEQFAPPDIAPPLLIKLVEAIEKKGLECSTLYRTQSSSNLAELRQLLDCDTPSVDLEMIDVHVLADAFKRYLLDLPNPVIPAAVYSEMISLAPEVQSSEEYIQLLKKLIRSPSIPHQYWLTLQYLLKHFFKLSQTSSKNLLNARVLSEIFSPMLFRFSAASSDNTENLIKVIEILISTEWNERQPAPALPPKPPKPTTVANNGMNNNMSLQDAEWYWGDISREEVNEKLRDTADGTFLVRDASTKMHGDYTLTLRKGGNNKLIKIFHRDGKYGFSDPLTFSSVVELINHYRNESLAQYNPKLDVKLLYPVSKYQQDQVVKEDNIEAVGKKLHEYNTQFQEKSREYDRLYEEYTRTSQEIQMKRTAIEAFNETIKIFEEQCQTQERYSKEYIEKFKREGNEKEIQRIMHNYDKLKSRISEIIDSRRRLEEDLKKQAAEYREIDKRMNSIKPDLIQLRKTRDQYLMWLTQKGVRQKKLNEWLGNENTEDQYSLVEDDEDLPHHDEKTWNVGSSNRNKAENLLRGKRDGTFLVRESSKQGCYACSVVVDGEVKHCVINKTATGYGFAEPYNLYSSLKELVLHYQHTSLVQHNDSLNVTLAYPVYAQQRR
Description: as §1

PI3K p110α = PI3K p110α (Homo sapiens, UniProt P42336); test: HTRF biochemical assay, PI3K p110α
Sequence of PI3K p110α (P42336 whole entry): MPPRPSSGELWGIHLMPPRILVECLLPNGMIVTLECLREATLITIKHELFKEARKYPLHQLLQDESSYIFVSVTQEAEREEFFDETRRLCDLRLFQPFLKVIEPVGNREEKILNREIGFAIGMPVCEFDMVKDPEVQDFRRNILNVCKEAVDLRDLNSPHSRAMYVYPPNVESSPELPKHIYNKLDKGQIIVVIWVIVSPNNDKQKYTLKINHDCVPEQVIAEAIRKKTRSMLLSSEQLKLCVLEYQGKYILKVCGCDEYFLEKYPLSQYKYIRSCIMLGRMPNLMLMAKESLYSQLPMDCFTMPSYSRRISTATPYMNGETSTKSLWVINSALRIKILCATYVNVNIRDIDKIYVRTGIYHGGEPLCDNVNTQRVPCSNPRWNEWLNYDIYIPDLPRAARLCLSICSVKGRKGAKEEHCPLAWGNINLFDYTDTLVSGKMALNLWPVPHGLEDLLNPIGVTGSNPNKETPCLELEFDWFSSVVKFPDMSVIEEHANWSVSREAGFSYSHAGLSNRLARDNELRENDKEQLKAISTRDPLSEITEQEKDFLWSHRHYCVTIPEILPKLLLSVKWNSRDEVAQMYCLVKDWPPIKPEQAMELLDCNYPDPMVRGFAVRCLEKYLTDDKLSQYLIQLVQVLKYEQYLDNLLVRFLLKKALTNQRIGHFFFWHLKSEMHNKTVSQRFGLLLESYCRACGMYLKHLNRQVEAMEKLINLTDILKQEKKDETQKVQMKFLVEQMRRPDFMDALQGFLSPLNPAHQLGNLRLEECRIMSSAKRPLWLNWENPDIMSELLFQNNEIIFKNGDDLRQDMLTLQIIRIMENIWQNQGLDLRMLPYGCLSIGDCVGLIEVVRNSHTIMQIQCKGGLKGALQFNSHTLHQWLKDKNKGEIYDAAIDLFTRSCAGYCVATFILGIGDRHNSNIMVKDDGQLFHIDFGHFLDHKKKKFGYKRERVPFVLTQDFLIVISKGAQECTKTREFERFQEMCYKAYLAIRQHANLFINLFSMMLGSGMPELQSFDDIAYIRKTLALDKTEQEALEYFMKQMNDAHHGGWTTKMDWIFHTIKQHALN
Sequence of PI3K p110α (P27986 whole entry partner): as the sequence (P27986 whole entry partner) above
Description: as §1

PI3K p110δ = PI3K p110δ (Homo sapiens, UniProt O00329); test: HTRF biochemical assay, PI3K p110δ
Sequence of PI3K p110δ (O00329 whole entry): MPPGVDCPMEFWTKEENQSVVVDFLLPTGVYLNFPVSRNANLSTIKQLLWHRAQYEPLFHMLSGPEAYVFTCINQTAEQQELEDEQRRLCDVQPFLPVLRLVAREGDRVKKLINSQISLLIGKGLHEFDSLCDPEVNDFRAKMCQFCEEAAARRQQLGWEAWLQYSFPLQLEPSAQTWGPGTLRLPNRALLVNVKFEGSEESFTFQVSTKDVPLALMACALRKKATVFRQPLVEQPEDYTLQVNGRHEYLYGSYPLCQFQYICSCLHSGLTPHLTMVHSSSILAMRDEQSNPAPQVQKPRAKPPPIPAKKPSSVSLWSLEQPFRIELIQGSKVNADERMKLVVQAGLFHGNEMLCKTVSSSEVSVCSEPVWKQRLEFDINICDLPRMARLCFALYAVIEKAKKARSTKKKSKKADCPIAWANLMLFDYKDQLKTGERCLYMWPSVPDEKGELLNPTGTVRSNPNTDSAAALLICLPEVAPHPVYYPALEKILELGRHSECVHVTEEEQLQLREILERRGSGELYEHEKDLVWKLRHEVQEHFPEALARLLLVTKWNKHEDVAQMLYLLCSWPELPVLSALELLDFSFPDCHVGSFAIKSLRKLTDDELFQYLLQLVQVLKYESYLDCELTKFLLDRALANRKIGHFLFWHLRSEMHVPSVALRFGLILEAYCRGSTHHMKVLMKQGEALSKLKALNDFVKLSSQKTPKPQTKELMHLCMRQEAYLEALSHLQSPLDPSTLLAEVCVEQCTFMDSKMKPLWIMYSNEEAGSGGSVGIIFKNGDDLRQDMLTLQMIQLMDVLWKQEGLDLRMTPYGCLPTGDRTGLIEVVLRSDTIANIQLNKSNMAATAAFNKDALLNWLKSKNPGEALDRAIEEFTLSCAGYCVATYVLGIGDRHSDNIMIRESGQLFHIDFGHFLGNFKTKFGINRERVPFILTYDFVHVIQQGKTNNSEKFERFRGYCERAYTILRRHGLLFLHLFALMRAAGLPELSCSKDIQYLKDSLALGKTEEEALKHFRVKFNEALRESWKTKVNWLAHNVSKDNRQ
Sequence of PI3K p110δ (P27986 whole entry partner): as the sequence (P27986 whole entry partner) above
Description: as §1

[3] = plasma, iv, 5 mg/kg, 5 mg/kg I.V., summary
[4] = plasma, iv, 5 mg/kg, Mesylate Salt
[5] = plasma, po, 10 mg/kg, Mesylate Salt
[6] = plasma, IV, 5 mg/kg, Mesylate Salt, read-out: Tmax
[7] = plasma, PO, 10 mg/kg, Mesylate Salt, read-out: Tmax
[8] = plasma, oral, 10 mg/kg P.O. and 5 mg/kg I.V., rounded summary in text, read-out: Oral bioavailability (F)
[9] = plasma, po, 10 mg/kg, summary table, unit inferred, read-out: Oral Bioavailability (F)
[10] = oral, 10 mg/kg P.O. and 3 mg/kg I.V., read-out: Oral bioavailability (F)
[11] = po, 10 mg/kg, summary table, unit inferred, read-out: Oral Bioavailability (F)

Compound: c1cc(-c2nc(N3CCOCC3)c3oc4ncc(CN5C[C@@H]6C[C@H]5CO6)cc4c3n2)c2cc[nH]c2c1 [Example A, 4-(1H-Indol-4-yl)-6-(morpholin-4-yl)-12-[(1S,4S)-2-oxa-5-azabicyclo[2.2.1]heptan-5-ylmethyl]-8-oxa-3,5,10-triazatricyclo[7.4.0.0^2,7]trideca-1(13),2(7),3,5,9,11-hexaene]
- F ([1]; PO, 10 mg/kg, Mesylate Salt): 73.77%
- clearance [1, 3]: 1.26 L/h/kg
- AUC [1, 4]: 3.91 µg·h/mL
- AUC(0-inf) [1, 4]: 3.95 µg·h/mL
- AUC(0-t) [1, 4]: 3.91 µg·h/mL
- Cmax [1, 4]: 2.64 µg/mL
- Vd [1, 4]: 2.44 L/kg
- clearance [1, 4]: 1.27 L/h/kg
- half-life [1, 4]: 1.3 h
- AUC [1, 5]: 5.62 µg·h/mL
- AUC(0-inf) [1, 5]: 5.82 µg·h/mL
- AUC(0-t) [1, 5]: 5.62 µg·h/mL
- Cmax [1, 5]: 1.97 µg/mL
- half-life [1, 5]: 1.3 h
- Tmax [1, 6]: 0.08 h
- Tmax [1, 7]: 1 h
- bioavailability [1, 8]: 74%
- bioavailability [1, 9]: 74%

Compound: c1cc(-c2nc(N3CCOCC3)c3oc4ncc(CN5CCC6(CC5)COC6)cc4c3n2)c2cc[nH]c2c1 [Example B, 4-(1H-Indol-4-yl)-6-(morpholin-4-yl)-12-{2-oxa-7-azaspiro[3.5]nonan-7-ylmethyl}-8-oxa-3,5,10-triazatricyclo[7.4.0.027]trideca-1(13),2(7),3,5,9,11-hexaene]
- F ([2]; PO, 10 mg/kg, Mesylate Salt): 74%
- clearance ([2]; 3 mg/kg, 3 mg/kg I.V., summary): 1.98 L/h/kg
- clearance ([2]; 3 mg/kg, Mesylate Salt): 1.98 L/h/kg
- AUC(0-inf) ([2]; IV, 3 mg/kg, Mesylate Salt): 1.51 µg·h/mL
- AUC(0-t) ([2]; IV, 3 mg/kg, Mesylate Salt): 1.51 µg·h/mL
- Cmax ([2]; IV, 3 mg/kg, Mesylate Salt): 0.621 µg/mL
- half-life ([2]; IV, 3 mg/kg, Mesylate Salt): 1.23 h
- Vd ([2]; IV, 3 mg/kg, Mesylate Salt): 5.51 L/kg
- AUC(0-inf) ([2]; PO, 10 mg/kg, Mesylate Salt): 4.1 µg·h/mL
- AUC(0-t) ([2]; PO, 10 mg/kg, Mesylate Salt): 3.73 µg·h/mL
- Cmax ([2]; PO, 10 mg/kg, Mesylate Salt): 0.78 µg/mL
- Tmax ([2]; PO, 10 mg/kg, Mesylate Salt): 1 h
- bioavailability [2, 10]: 74%
- bioavailability [2, 11]: 74%
- Fold IC50 p110β/p110α (PI3K isoforms): ** (** = ≥50x)
- Fold IC50 p110β/p110γ (PI3K isoforms): ** (** = ≥50x)
- Fold IC50 p110δ/p110α (PI3K isoforms): ** (** = ≥50x)
- Fold IC50 p110δ/p110γ (PI3K isoforms): ** (** = ≥50x)

Compound: CN1CCC2(CCN(Cc3cnc4oc5c(N6CCOCC6)nc(-c6cccc7[nH]ccc67)nc5c4c3)CC2)C1 [Example D, 4-(1H-Indol-4-yl)-12-({2-methyl-2,8-diazaspiro[4.5]decan-8-yl}methyl)-6-(morpholin-4-yl)-8-oxa-3,5,10-triazatricyclo[7.4.0.0^2,7]trideca-1(13),2(7),3,5,9,11-hexaene]
- Fold IC50 p110β/p110α (PI3K isoforms): ** (** = ≥50x)
- Fold IC50 p110β/p110γ (PI3K isoforms): ** (** = ≥50x)
- Fold IC50 p110δ/p110α (PI3K isoforms): ** (** = ≥50x)
- Fold IC50 p110δ/p110γ (PI3K isoforms): ** (** = ≥50x)

Compound: CN1CCC2(CCN(Cc3cnc4oc5c(N6CCOCC6)nc(-c6cccc7[nH]ccc67)nc5c4c3)C2)C1 (centres unmarked) [Example E, 4-(1H-Indol-4-yl)-12-({7-methyl-2,7-diazaspiro[4.4]nonan-2-yl}methyl)-6-(morpholin-4-yl)-8-oxa-3,5,10-triazatricyclo[7.4.0.0^2,7]trideca-1(13),2(7),3,5,9,11-hexaene]
- Fold IC50 p110β/p110α (PI3K isoforms): ** (** = ≥50x)
- Fold IC50 p110β/p110γ (PI3K isoforms): ** (** = ≥50x)
- Fold IC50 p110δ/p110α (PI3K isoforms): ** (** = ≥50x)
- Fold IC50 p110δ/p110γ (PI3K isoforms): ** (** = ≥50x)

Compound: c1cc(-c2nc(N3CCOCC3)c3oc4ncc(CN5CCC56COC6)cc4c3n2)c2cc[nH]c2c1 [Example G, 4-(1H-indol-4-yl)-6-(morpholin-4-yl)-12-{6-oxa-1-azaspiro[3.3]heptan-1-ylmethyl}-8-oxa-3,5,10-triazatricyclo[7.4.0.0^2,7]trideca-1(13),2(7),3,5,9,11-hexaene]
- IC50 (PI3K p110γ): 500 to 1000 nM
- F ([2]; PO, 10 mg/kg, Mesylate Salt): 30%
- clearance ([2]; 3 mg/kg, 3 mg/kg I.V., summary): 1.56 L/h/kg
- clearance ([2]; 3 mg/kg, Mesylate Salt): 1.55 L/h/kg
- AUC(0-inf) ([2]; IV, 3 mg/kg, Mesylate Salt): 1.94 µg·h/mL
- AUC(0-t) ([2]; IV, 3 mg/kg, Mesylate Salt): 1.92 µg·h/mL
- Cmax ([2]; IV, 3 mg/kg, Mesylate Salt): 2.21 µg/mL
- half-life ([2]; IV, 3 mg/kg, Mesylate Salt): 0.59 h
- Vd ([2]; IV, 3 mg/kg, Mesylate Salt): 1.25 L/kg
- AUC(0-inf) ([2]; PO, 10 mg/kg, Mesylate Salt): 2.14 µg·h/mL
- AUC(0-t) ([2]; PO, 10 mg/kg, Mesylate Salt): 1.89 µg·h/mL
- Cmax ([2]; PO, 10 mg/kg, Mesylate Salt): 0.833 µg/mL
- Tmax ([2]; PO, 10 mg/kg, Mesylate Salt): 0.25 h
- bioavailability [2, 10]: 30%
- bioavailability [2, 11]: 30%
- IC50 (PI3K p110β): ≤ 500 nM
- IC50 (PI3K p110α): ≤ 500 nM
- IC50 (PI3K p110δ): ≤ 500 nM

Compound: c1cc(-c2nc(N3CCOCC3)c3oc4ncc(CN5CCCCC5)cc4c3n2)c2cc[nH]c2c1 [Example I in WO2011/021038]
- Tmax ([1]; IV, 5 mg/kg, HCl Salt): 0.08 h
- F ([1]; PO, 10 mg/kg, HCl Salt): 29.6%
- Tmax ([1]; PO, 10 mg/kg, HCl Salt): 1.0 h
- F ([1]; PO, 10 mg/kg, Mesylate Salt): 27.8%
- clearance [1, 3]: 3.96 L/h/kg
- AUC ([1]; plasma, iv, 5 mg/kg, HCl Salt): 1.48 µg·h/mL
- AUC(0-inf) ([1]; plasma, iv, 5 mg/kg, HCl Salt): 1.52 µg·h/mL
- AUC(0-t) ([1]; plasma, iv, 5 mg/kg, HCl Salt): 1.48 µg·h/mL
- Cmax ([1]; plasma, iv, 5 mg/kg, HCl Salt): 1.71 µg/mL
- Vd ([1]; plasma, iv, 5 mg/kg, HCl Salt): 10.1 L/kg
- clearance ([1]; plasma, iv, 5 mg/kg, HCl Salt): 3.3 L/h/kg
- half-life ([1]; plasma, iv, 5 mg/kg, HCl Salt): 7.6 h
- AUC [1, 4]: 1.25 µg·h/mL
- AUC(0-inf) [1, 4]: 1.26 µg·h/mL
- AUC(0-t) [1, 4]: 1.25 µg·h/mL
- Cmax [1, 4]: 1.62 µg/mL
- Vd [1, 4]: 4.6 L/kg
- clearance [1, 4]: 3.97 L/h/kg
- half-life [1, 4]: 1.6 h
- AUC ([1]; plasma, po, 10 mg/kg, HCl Salt): 0.849 µg·h/mL
- AUC(0-inf) ([1]; plasma, po, 10 mg/kg, HCl Salt): 0.896 µg·h/mL
- AUC(0-t) ([1]; plasma, po, 10 mg/kg, HCl Salt): 0.849 µg·h/mL
- Cmax ([1]; plasma, po, 10 mg/kg, HCl Salt): 0.322 µg/mL
- half-life ([1]; plasma, po, 10 mg/kg, HCl Salt): 1.8 h
- AUC [1, 5]: 0.657 µg·h/mL
- AUC(0-inf) [1, 5]: 0.7 µg·h/mL
- AUC(0-t) [1, 5]: 0.657 µg·h/mL
- Cmax [1, 5]: 0.212 µg/mL
- half-life [1, 5]: 1.9 h
- Tmax [1, 6]: 0.08 h
- Tmax [1, 7]: 1 h
- bioavailability [1, 8]: 28%
- bioavailability [1, 9]: 28%
